Literature values in publication PMC8999965 (Materials, 2022).

Parameters: method as in earlier work
Conditions: for EI(PCOP=0), environmental index excluding Photochemical Oxidation Potential: PCOP score excluded from summation; for EI, overall environmental index: sum of toxicity and environmental impact scores

SMILES	EI(PCOP=0), environmental index excluding Photochemical Oxidation Potential	EI, overall environmental index
CC#N [acetonitrile]	1.88	1.88
C[S+](C)[O-] [DMSO, dimethyl sulfoxide]	0.26	11.68
O=CN1CCOCC1 [4-formylmorpholine]	0.51	0.51
C1COCCN1 [morpholine]	2.95	2.95
CC(C)=O [acetone]	0.66	1.27
CCN1CCOCC1 [4-ethylmorpholine]	2.12	2.12
